Data from patent US20230121721A1, “MONOACYLGLYCEROL LIPASE INHIBITORS” (STICHTING HET NEDERLANDS KANKER INSTITUUT - ANTONI VAN …, priority 2020, published 2023).

What follows are compounds tested against T1, hMAGL (MAGL-overexpressing membrane preparations from transiently transfected HEK293T cells) (Homo sapiens, UniProt Q99685) (assay: MAGL activity assay (2-AG hydrolysis, glycerol coupled to Amplifu Red fluorescence)). Settings: hMAGL-overexpressing HEK293T membranes, 25 μM 2-AG substrate, 20 min. inhibitor incubation.
T1 construct: expressed in transfected cells; host or cells: HEK293T (transient transfection), membrane preparations
T1 sequence (Q99685 1-303): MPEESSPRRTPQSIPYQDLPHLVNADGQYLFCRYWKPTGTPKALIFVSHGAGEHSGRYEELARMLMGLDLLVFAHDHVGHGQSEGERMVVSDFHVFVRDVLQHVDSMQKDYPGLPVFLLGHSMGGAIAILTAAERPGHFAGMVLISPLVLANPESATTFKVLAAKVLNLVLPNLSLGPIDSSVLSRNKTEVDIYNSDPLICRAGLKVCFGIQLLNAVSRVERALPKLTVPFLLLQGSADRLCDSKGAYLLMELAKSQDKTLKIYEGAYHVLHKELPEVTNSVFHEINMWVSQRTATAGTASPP
Format: biochemical
Text: The MAGL activity assay is based on the production of glycerol from 2-arachidonoylglycerol (2-AG) hydrolysis by MAGL-overexpressing membrane preparations from transiently transfected HEK293T cells, as previously reported in van der Wel T et al., “A natural substrate-based fluorescence assay for inhibitor screening on diacylglycerol lipase”, J Lipid Res., 2015, 56(4), 927-35. The produced glycerol is coupled to the oxidation of commercially available Amplifu™ Red (Sigma-Aldrich Chemie N.V., Zwijndrecht, Netherlands) via a multi-enzyme cascade, resulting in a fluorescent signal from the dye resorufin.
Standard assays were performed in HEMNB buffer (50 mM HEPES pH 7.4, 1 mM EDTA, 5 mM MgCl2, 100 mM NaCl, 0.5% (w/v) BSA) in black, flat bottom 96-wells plates. Final protein concentration of membrane preparations from overexpressing hMAGL HEK293T cells was 1.5 μg/mL (0.3 μg per well). Inhibitors were added from 40× concentrated DMSO stocks. […] Final assay concentrations: 0.2 U/mL GK, GPO and HRP, 0.125 mM ATP, 10 μM Amplifu™ Red, 25 μM 2-AG, 5% DMSO, 0.5% ACN in a total volume of 200 μL.
For IC50 determination, the MAGL-overexpressing membranes were incubated with different inhibitor concentrations. Slopes of corrected fluorescence in time were determined in the linear interval of t=10 to t=35 min and then scaled to the corrected positive control of hMAGL-overexpressing membranes treated with vehicle (DMSO) as a 100% activity reference point. The data was exported to GraphPad Prism 5.0 and analysed in a non-linear dose-response analysis with variable slope.

Row | Structure (SMILES) | IC50 [nM]
1 | C[C@H]1[C@H](C)N(c2cccc(Cl)c2)CCN1C(=O)c1ccc([S+]([O-])CC(=O)c2ccc(F)cc2)c(Cl)c1 (mixture of isomers) [Example 86, (±) 2-((2-Chloro-4-(4-(3-chlorophenyl)-trans-2,3-dimethylpiperazine-1-carbonyl)phenyl)sulfinyl)-1-(4-fluorophenyl)ethan-1-one] | 1910
2 | C[C@H]1[C@H](C)N(c2cccc(Cl)c2)CCN1C(=O)c1ccc([S+]([O-])CC(=O)c2cccc(F)c2)c(Cl)c1 (mixture of isomers) [Example 87, (±) 2-((2-Chloro-4-(4-(3-chlorophenyl)-trans-2,3-dimethylpiperazine-1-carbonyl)phenyl)sulfinyl)-1-(3-fluorophenyl)ethan-1-one] | > 10000
3 | C[C@H]1[C@H](C)N(c2cccc(Cl)c2)CCN1C(=O)c1ccc([S+]([O-])CC(=O)c2cc(F)cc(F)c2)c(Cl)c1 (mixture of isomers) [Example 89, (±) 2-((2-Chloro-4-(4-(3-chlorophenyl)-trans-2,3-dimethylpiperazine-1-carbonyl)phenyl)sulfinyl)-1-(3,5-difluorophenyl)ethan-1-one] | 2090
4 | C[C@H]1[C@H](C)N(c2cccc(Cl)c2)CCN1C(=O)c1ccc([S+]([O-])CC(=O)c2ccc(Cl)c(C(F)(F)F)c2)c(Cl)c1 (mixture of isomers) [Example 91, (±) 1-(4-Chloro-3-(trifluoromethyl)phenyl)-2-((2-chloro-4-(4-(3-chlorophenyl)-trans-2,3-dimethyl-piperazine-1-carbonyl)-phenyl)sulfinyl)ethan-1-one] | > 10000
5 | C[C@H]1[C@H](C)N(c2cccc(Cl)c2)CCN1C(=O)c1ccc([S+]([O-])CC(=O)c2ccc(F)c(C(F)(F)F)c2)c(Cl)c1 (mixture of isomers) [Example 92, (±) 2-((2-Chloro-4-(4-(3-chlorophenyl)-trans-2,3-dimethylpiperazine-1-carbonyl)phenyl)sulfinyl)-1-(4-fluoro-3-(trifluoromethyl)phenyl)ethan-1-one] | > 10000
6 | C[C@H]1[C@H](C)N(c2cccc(Cl)c2)CCN1C(=O)c1ccc([S+]([O-])CC(=O)c2cccc(F)c2F)c(Cl)c1 (mixture of isomers) [Example 93, (±) 2-((2-Chloro-4-(4-(3-chlorophenyl)-trans-2,3-dimethylpiperazine-1-carbonyl)phenyl)sulfinyl)-1-(2,3-difluorophenyl)ethan-1-one] | 575
7 | C[C@H]1[C@H](C)N(c2cccc(Cl)c2)CCN1C(=O)c1ccc([S+]([O-])CC(=O)c2ccc(F)c(F)c2)c(Cl)c1 (mixture of isomers) [Example 94, (±) 2-((2-Chloro-4-(4-(3-chlorophenyl)-trans-2,3-dimethylpiperazine-1-carbonyl)phenyl)sulfinyl)-1-(3,4-difluorophenyl)ethan-1-one] | 759
8 | C[C@H]1[C@H](C)N(c2cccc(Cl)c2)CCN1C(=O)c1ccc([S+]([O-])CC(=O)c2ccccc2F)c(Cl)c1 (mixture of isomers) [Example 95, (±) 2-((2-Chloro-4-(4-(3-chlorophenyl)-trans-2,3-dimethylpiperazine-1-carbonyl)phenyl)sulfinyl)-1-(2-fluorophenyl)ethan-1-one] | 1620
9 | C[C@H]1[C@H](C)N(c2cccc(Cl)c2)CCN1C(=O)c1ccc([S+]([O-])CC(=O)c2ccc(F)cc2F)c(Cl)c1 (mixture of isomers) [Example 97, (±) 2-((2-Chloro-4-(4-(3-chlorophenyl)-trans-2,3-dimethylpiperazine-1-carbonyl)phenyl)sulfinyl)-1-(2,4-difluorophenyl)ethan-1-one] | 234
10 | C[C@H]1[C@H](C)N(c2cccc(Cl)c2)CCN1C(=O)c1ccc([S+]([O-])CC(=O)c2ccc(C#N)cc2)c(Cl)c1 (mixture of isomers) [Example 99, (±) 4-(2-((2-Chloro-4-(4-(3-chlorophenyl)-trans-2,3-dimethyl-piperazine-1-carbonyl)phenyl)sulfinyl)acetyl)benzonitrile] | 91.2

More lines, now with the values ahead:

Row | IC50 [nM] | Structure (SMILES)
11 | 3.39 | C[C@H]1[C@H](C)N(c2cc(Cl)ccn2)CCN1C(=O)c1ccc([S+]([O-])CC(=O)C(C)(F)F)c(Cl)c1 (mixture of isomers) [Example 83, (±) 1-((2-Chloro-4-(4-(4-chloropyridin-2-yl)-trans-2,3-dimethylpiperazine-1-carbonyl)phenyl)sulfinyl)-3,3-difluorobutan-2-one]
12 | 2.82 | CCC(F)(F)C(=O)C[S+]([O-])c1ccc(C(=O)N2CCN(c3cc(Cl)ccn3)[C@@H](C)[C@@H]2C)cc1Cl (mixture of isomers) [Example 84, (±) 1-((2-Chloro-4-(4-(4-chloropyridin-2-yl)-trans-2,3-dimethylpiperazine-1-carbonyl)phenyl)sulfinyl)-3,3-difluoropentan-2-one]
13 | 9770 | C[C@H]1[C@H](C)N(c2cccc(Cl)c2)CCN1C(=O)c1ccc([S+]([O-])CC(=O)c2cccnc2)c(Cl)c1 (mixture of isomers) [Example 85, (±) 2-((2-Chloro-4-(4-(3-chlorophenyl)-trans-2,3-dimethylpiperazine-1-carbonyl)phenyl)sulfinyl)-1-(pyridin-3-yl)ethan-1-one]
14 | 251 | C[C@H]1[C@H](C)N(c2cccc(Cl)c2)CCN1C(=O)c1ccc([S+]([O-])CC(=O)c2cccnn2)c(Cl)c1 (mixture of isomers) [Example 88, (±) 2-((2-Chloro-4-(4-(3-chlorophenyl)-trans-2,3-dimethylpiperazine-1-carbonyl)phenyl)sulfinyl)-1-(pyridazin-3-yl)ethan-1-one]
15 | 813 | C[C@H]1[C@H](C)N(c2cccc(Cl)c2)CCN1C(=O)c1ccc([S+]([O-])CC(=O)c2ccc(C(F)(F)F)nc2)c(Cl)c1 (mixture of isomers) [Example 90, (±) 2-((2-Chloro-4-(4-(3-chlorophenyl)-trans-2,3-dimethylpiperazine-1-carbonyl)phenyl)sulfinyl)-1-(6-(trifluoromethyl)pyridin-3-yl)ethan-1-one]
16 | 708 | C[C@H]1[C@H](C)N(c2cccc(Cl)c2)CCN1C(=O)c1ccc([S+]([O-])CC(=O)c2ccnnc2)c(Cl)c1 (mixture of isomers) [Example 96, (±) 2-((2-Chloro-4-(4-(3-chlorophenyl)-trans-2,3-dimethylpiperazine-1-carbonyl)phenyl)sulfinyl)-1-(pyridazin-4-yl)ethan-1-one]
17 | 87.1 | C[C@H]1[C@H](C)N(c2cccc(Cl)c2)CCN1C(=O)c1ccc([S+]([O-])CC(=O)c2ccncn2)c(Cl)c1 (mixture of isomers) [Example 100, (±) 2-((2-Chloro-4-(4-(3-chlorophenyl)-trans-2,3-dimethylpiperazine-1-carbonyl)phenyl)sulfinyl)-1-(pyrimidin-4-yl)ethan-1-one]
18 | 1100 | C[C@H]1[C@H](C)N(c2cccc(Cl)c2)CCN1C(=O)c1ccc([S+]([O-])CC(=O)c2cnccn2)c(Cl)c1 (mixture of isomers) [Example 101, (±) 2-((2-Chloro-4-(4-(3-chlorophenyl)-trans-2,3-dimethylpiperazine-1-carbonyl)phenyl)sulfinyl)-1-(pyrazin-2-yl)ethan-1-one]
19 | 28.2 | C[C@H]1[C@H](C)N(c2cccc(Cl)c2)CCN1C(=O)c1ccc([S+]([O-])CC(=O)c2ncccn2)c(Cl)c1 (mixture of isomers) [Example 102, (±) 2-((2-Chloro-4-(4-(3-chlorophenyl)-trans-2,3-dimethylpiperazine-1-carbonyl)phenyl)sulfinyl)-1-(pyrimidin-2-yl)ethan-1-one]
